# What was measured:
# [1] = test system: Enterobacter aerogenes MDR Ea289; experiment: MIC of antibiotics ± test compound (MIC ratio), micro-broth dilution; type: cell-based; details: compound at MIC/4, Set 2; for MIC ratio (*) on Ea289 Dox: doxycycline; for MIC ratio (*) on Ea289 Nal: nalidixic acid
# [2] = test system: Salmonella Thyphimurium MDR BN10055; experiment: as above; type: cell-based, Salmonella enterica serovar Typhimurium; details: for MIC ratio (*) on BN10055 Chl: chloramphenicol; for MIC ratio (*) on BN10055 Dox: doxycycline; for MIC ratio (*) on BN10055 Nal: nalidixic acid
# Method: (§1) The Enterobacter aerogenes Ea289 strain is a Kans derivative of the MDR clinical isolate Ea27, the acrB mutant, EaEP294, was constructed from Ea289. Multidrug-resistant Salmonella enterica serovar Typhimurium DT104 strains (BN10055) was isolated from cattle in France, the isogenic acrB derivative mutant, BN10055ΔacrB, was constructed from BN10055. Strains were maintained at −80° C. in 25% (v/v) glycerol for cryoprotection. Bacteria were routinely grown in Mueller-Hinton (MH) broth at 37° C.
# (§2) Susceptibilities to antibiotics and compounds were determined in microplates by broth dilution method, as previously described. Minimal Inhibitory Concentrations (MICs) were determined with an inoculum of 10^6 CFU in 200 μL of MH broth containing two-fold serial dilutions of each drug. […] All MIC determinations were repeated at least three times in independent experiments.
# (§3) […] All MIC determinations were repeated at least three times in independent experiments. The MIC ratio corresponds to the ratio of the MIC of an antibiotic alone to the MIC of the same antibiotic in the presence of the tested compound (at MIC/4).
# (§4) For reminder, the MIC ratio corresponds to the ratio of the MIC of the assessed antibiotic alone to the MIC of the same antibiotic in the presence of the tested compound (at MIC/4).
# [3] = test system: Enterobacter aerogenes MDR Ea289; experiment: as above; type: cell-based
# Method: The process consists of treating the MDR bacteria with the compounds of the invention in the presence of antibiotics.
# as §2
# The MICs of chloramphenicol±test compounds (MIC/4) were determined by the micro-broth dilution method (9). All MIC determinations were repeated at least three times in independent experiments. The MIC ratio corresponds to the ratio of the MIC of an antibiotic alone to the MIC of the same antibiotic in the presence of the tested compound (at MIC/4).
# The compounds listed in Table 2 were tested for their ability to decrease the chloramphenicol MIC of Ea289, an Enterobacter aerogenes MDR strain (1). Each compound was first tested at MIC/4. […] All MIC determinations were repeated at least three times in independent experiments.
# as §4
# [4] = test system: strain IV2571223 - Escherichia coli pig (sensible); experiment: MIC of antibiotics in the presence and absence of test compound, veterinary strains; type: cell-based; set-up: MIC for strain IV2571223, Doxycycline in the presence of test compound: unit not given beside the values; details: compound at the Concentration (μM) (2-50)
# Method: (§5) For each strain and each antibiotic, the MICs were determined in the presence and in the absence of one test compound.
# [5] = test system: strain IV2570060 - Escherichia coli cattle (sensible); experiment: as above; type: cell-based; details: compound at the Concentration (μM) (4-50)
# Method: as §5
# [6] = test system: strain IV2570533 - Escherichia coli cattle (resistant); experiment: as above; type: cell-based; details: compound at the Concentration (μM) (0.896-12.6)
# Method: as §5
# [7] = test system: strain IV2571418 - Escherichia coli pig (resistant); experiment: as above; type: cell-based; set-up: MIC for strain IV2571418, Doxycycline in the presence of test compound: unit not given beside the values; details: compound at the Concentration (μM) (4-50)
# Method: as §5
# BN10055ΔacrB = experiment: MIC of antibiotics ± test compound (MIC ratio), micro-broth dilution; type: cell-based, Salmonella enterica serovar Typhimurium; details: compound at MIC/4, Set 1
# Method: as §1, §2, §3, §4
# CHO cells = experiment: Toxicity on CHO cultured cells; type: cell-based; details: Cricetulus griseus; killing of 50% of the CHO cells after 24 hours of incubation
# Method: The toxicity of each compound was determined on CHO cultured cells. Incubation of CHO cells was performed with serial dilution of compounds. The compounds are either solubilized in DMSO or in PBS. The IC50 corresponds to the concentration of compounds leading to a killing of 50% of the CHO cells after 24 hours of incubation.
# Ea289ΔacrB (Ea294) = experiment: MIC of antibiotics ± test compound (MIC ratio), micro-broth dilution; type: cell-based, Enterobacter aerogenes; details: compound at MIC/4, Set 1
# Method: as §1, §2, §3, §4
# [8] = chloramphenicol, compound at MIC/4, Set 2
# [9] = doxycycline and nalidixic acid, Set 2
# [10] = erythromycin, compound at MIC/4, Set 1
Compound,MIC ratio (*) on Ea289 Dox [1],MIC ratio (*) on Ea289 Nal [1],"MIC ratio (*) on BN10055 Chl ([2]; compound at MIC/4, Set 2)","MIC ratio (*) on BN10055 Dox ([2]; compound at MIC/4, Set 2)","MIC ratio (*) on BN10055 Nal ([2]; compound at MIC/4, Set 2)","MIC ratio (*) on Ea289 Chl [3, 8]",further results
CC(C)=CCC/C(C)=C/CC/C(C)=C/CNCCCN1CCCC1 [Compound 22],32,16,16,32,128,8-16,–
CC(C)=CCC/C(C)=C/CC/C(C)=C/CNCCCNCCCN [Compound 20],32,8,8,32,64,8,–
"CC(C)=CCC/C(C)=C/CC/C(C)=C/CNCCCN1CCN(CCCN)CC1 [Compound 15, {3-[4-(3-Amino-propyl)-piperazin-1-yl]-propyl}-((2E,6E)-3,7,11-trimethyl-dodeca-2,6,10-trienyl)-amine]",128,32,8,32,64,8,"MIC for strain IV2571223, Doxycycline in the presence of test compound [4]: 0.0625; MIC for strain IV2571223, Tylosine in the presence of test compound [4]: 32; MIC for strain IV2570060, Doxycycline in the presence of test compound [5]: 0.125; MIC for strain IV2570060, Tylosine in the presence of test compound [5]: 32; MIC for strain IV2570533, Doxycycline in the presence of test compound [6]: 2; MIC for strain IV2570533, Tylosine in the presence of test compound [6]: 32; MIC for strain IV2571418, Doxycycline in the presence of test compound [7]: 4; MIC for strain IV2571418, Tylosine in the presence of test compound [7]: 32"
"CC(C)=CCC/C(C)=C/CC/C(C)=C/CNCCNCCNCCNCCNCCN [Compound 35, [2-(2-{2-[2-(2-Amino-ethylamino)-ethylamino]-ethylamino}-ethylamino)-ethyl]-(3,7,11-trimethyl-dodeca-2,6,10-trienyl)-amine]",–,–,–,–,–,–,"MICs for doxycycline and nalidixic acid, BN100055 [2, 9]: > 8; MICs for doxycycline and nalidixic acid, Ea289 [3, 9]: > 8; MIC for strain IV2571223, Doxycycline in the presence of test compound [4]: 0.0625; MIC for strain IV2571223, Tylosine in the presence of test compound [4]: 32; MIC for strain IV2570060, Doxycycline in the presence of test compound [5]: 0.0625; MIC for strain IV2570060, Tylosine in the presence of test compound [5]: 8; MIC for strain IV2570533, Doxycycline in the presence of test compound [6]: 1; MIC for strain IV2570533, Tylosine in the presence of test compound [6]: 4; MIC for strain IV2571418, Doxycycline in the presence of test compound [7]: 2; MIC for strain IV2571418, Tylosine in the presence of test compound [7]: 8"
"CC(C)=CCC/C(C)=C/CC/C(C)=C/CNCCCN(CCCN)CCCN [Compound 9, {3-[Bis-(3-amino-propyl)-amino]-propyl}-(3,7,11-trimethyl-dodeca-2,6,10-trienyl)-amine]",16,16,16,8,128,32,"MIC ratio(*) on BN10055ΔacrB Chl (BN10055ΔacrB; chloramphenicol): 2; MIC ratio(*) on BN10055ΔacrB Ery (BN10055ΔacrB; erythromycin): 8; MIC ratio(*) on BN10055ΔacrB Nal (BN10055ΔacrB; nalidixic acid): 8; MIC ratio (*) on BN10055 Chl ([2]; compound at MIC/4, Set 1): 16; MIC ratio(*) on BN10055 Ery [2, 10]: 32; MIC ratio (*) on BN10055 Nal ([2]; compound at MIC/4, Set 1): 128; Effective concentration (mM) for a MIC ratio of chloramphenicol ≥ 8 on Ea289 ([3]; chloramphenicol): 0.0078 mM; efficient concentration, times lower than the control PAβN ([3]; chloramphenicol MIC ratio of 8 on Ea289): about 4.9 times; activity, effective concentration compared with PAβN to reach a MIC ratio of 8 ([3]; chloramphenicol on Ea289): strong activity; MIC ratio (*) on Ea289 Chl ([3]; chloramphenicol, compound at MIC/4, Set 1): 32; MIC ratio(*) on Ea289 Ery [3, 10]: 16-32; MIC ratio (*) on Ea289 Nal ([3]; nalidixic acid, compound at MIC/4, Set 1): 16; IC50 (CHO cells): 0.132 mM; MIC ratio(*) on Ea289ΔacrB Chl (Ea289ΔacrB (Ea294); chloramphenicol): 4; MIC ratio(*) on Ea289ΔacrB Ery (Ea289ΔacrB (Ea294); erythromycin): 8; MIC ratio(*) on Ea289ΔacrB Nal (Ea289ΔacrB (Ea294); nalidixic acid): 128"
CC(C)=CCC/C(C)=C/CC/C(C)=C/CNCCCN [Compound 16],64,16,16-32,32,128,8-16,–
CC(C)=CCC/C(C)=C/CC/C(C)=C/CNCCCCCN [Compound 18],64,8,4-8,16,16,8-16,–
